The values below come from patent publication US7569724B2, “Carbamic acid compounds comprising an amide linkage as HDAC inhibitors” (Topotarget UK Limited, priority 2000, dated 2009).

pIC50: −log10 of the molar value. Read-outs that look alike come from different tables or passages of the source.

For one data set, the system named is HDAC (HeLa cell extract). The experiment in a line: Primary assay: deacetylase activity, HeLa cell extract as source of HDAC. The conditions noted are these: HeLa cell extract. Format: biochemical, human. The method in brief: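 Crude HeLa extract (freeze-thaw in 60 mM TrisCl pH 8.0, 450 mM NaCl, 30% glycerol) was incubated 1 h at 37° C with a [³H]acetyl-labelled histone H4 N-terminal peptide in 20 mM Tris pH 7.4, 10% glycerol.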

Another data set concerns the target T1, human HDAC2 (Homo sapiens, UniProt Q92769).
T1 construct: Full length human HDAC2 was subcloned; Flag (C); His6 (from pAcHLT-A vector; purified on Ni-NTA) (N); made in house; host or cells: SF9 insect cells (baculovirus)
The experiment in a line: Primary assay: deacetylase activity, recombinantly produced HDAC2. The format is biochemical. The conditions noted are these: for pIC50: recombinant HDAC2, read-out: HDAC Inhibition (IC50 unless otherwise specified) HDAC2. An excerpt: (§1) Briefly, this assay relies on the release of radioactive acetate from a radioactively labelled histone fragment by the action of HDAC enzyme. Test compounds, which inhibit HDAC, reduce the yield of radioactive acetate. Signal (e.g., scintillation counts) measured in the presence and absence of a test compound provide an indication of that compound's ability to inhibit HDAC activity. Decreased activity indicates increased inhibition by the test compound.
(§2) The histone fragment was an N-terminal sequence from histone H4, and it was labelled with radioactively labelled acetyl groups using tritiated acetylcoenzyme A (coA) in conjunction with an enzyme which is the histone acetyltransferase domain of the transcriptional coactivator p300. […] The acetylated peptide was then separated from free acetyl coA by size exclusion chromatography on Sephadex G-15 (Sigma G-15-120), using distilled H2O as the mobile phase.
(§3) After purification of the radiolabelled histone fragment, it was incubated with a source of HDAC (e.g., an extract of HeLa cells (a rich source of HDAC), recombinantly produced HDAC1 or HDAC2) and any released acetate was extracted into an organic phase and quantitatively determined using scintillation counting. By including a test compound with the source of HDAC, that compound's ability to inhibit the HDAC was determined.
(§4) Amplification of recombinant viruses was performed according to the Pharmingen Instruction Manual.
(§5) For protein production, 2×10^7 cells were infected with the appropriate recombinant virus for 3 days. Cells were then harvested and spun at 3,000 rpm for 5 minutes. They were then washed twice in PBS and resuspended in 2 pellet volumes of lysis buffer (25 mM HEPES pH 7.9, 0.1 mM EDTA, 400 mM KCl, 10% glycerol, 0.1% NP-40, 1 mM AEBSF). Resuspended cells were frozen on dry ice and thawed at 37° C. 3 times and centrifuged for 10 minutes at 14,000 rpm. […] Incubation was carried out at 4° C. for 1 hour on a rotating wheel. The slurry was then centrifuged at 500 g for 5 minutes. Beads were washed twice in 1 ml of wash buffer (25 mM HEPES pH7.9, 0.1 mM EDTA, 150 mM KCl, 10% glycerol, 0.1% NP-40, 1 mM AEBSF). Protein was eluted 3 times in 300 μl elution buffer (25 mM HEPES pH 7.9, 0.1 mM EDTA, 250 mM KCl, 10% glycerol, 0.1% NP-40, 1 mM AEBSF) containing increasing concentrations of imidazole: 0.2 M, 0.5 M and 1 M. Each elution was performed for 5 minutes at room temperature. Eluted protein was kept in 50% glycerol at −70° C.
(§6) A source of HDAC (e.g., 2 μL of crude HeLa extract, 5 μL of HDAC1 or HDAC2; in elution buffer, as above) was incubated with 3 μL of radioactively labelled peptide along with appropriate dilutions of candidate compounds (1.5 μL) in a total volume of 150 μL of buffer (20 mM Tris pH 7.4, 10% glycerol). The reaction was carried out at 37° C. for one hour, after which the reaction was stopped by adding 20 μL of 1 M HCl/0.4 M sodium acetate. […] Radioactivity was measured using a Tri-Carb 2100TR Liquid Scintillation Analyzer (Packard).
(§7) Percent activity (% activity) for each test compound was calculated as: % activity={(S^C−B)/(S^o−B)}×100 wherein S^C denotes signal measured in the presence of enzyme and the compound being tested, S^o denotes signal measured in the presence of enzyme but in the absence of the compound being tested, and B denotes the background signal measured in the absence of both enzyme and compound being tested.

For the next data set, the target named is T2, human HDAC1 (Homo sapiens, UniProt Q13547).
T2 construct: Full length human HDAC1 was cloned by PCR; Flag (C); His6 (from pAcHLT vector; purified on Ni-NTA) (N); made in house; host or cells: SF9 insect cells (baculovirus)
Kind of data set: Primary assay: deacetylase activity, recombinantly produced HDAC1. The format is biochemical. Particulars: recombinant HDAC1; read-out: HDAC Inhibition (IC50 unless otherwise specified) HDAC1.
Excerpt: as §1, §2, §3
Full length human HDAC1 was cloned by PCR using a λgt11 Jurkat cDNA library (Clontech-HL5012b). The amplified fragment was inserted into the EcoRI-Sall sites of pFlag-CTC vector (Sigma-E5394), in frame with the Flag tag. A second PCR was carried out in order to amplify a fragment containing the HDAC1 sequence fused to the Flag tag.
as §4, §5, §6, §7

A further data set concerns HeLa cells. The experiment in a line: Secondary assay: cell proliferation WST-1, HeLa. Format: cell-based. The conditions noted are these: Homo sapiens, 48 h, read-out: Cell Proliferation Inhibition WST-1 (IC50 unless otherwise specified) HeLa. The gist of the method:
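Absorbance at 450 nm (reference 690 nm); % activity vs untreated after blank subtraction, IC50 fitted with top 100 and bottom 0.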

The test system of a further data set is JURKAT human T-cell line. The experiment in a line: Secondary assay: cell proliferation WST-1, Jurkat. The format is cell-based. The conditions noted are these: Homo sapiens, 48 h, read-out: Cell Proliferation Inhibition WST-1 (IC50 unless otherwise specified) Jurkat. Here is the method:
(§8) Compounds with HDAC inhibition activity, as determined using the primary assay, were subsequently evaluated using secondary cell-based assays. The following cell lines were used:
JURKAT—Human T-cell line (ATCC no. TIB-152).
(§9) Cells were plated in 96-well plates at 3-10×10^3 cells/well in 100 μL of culture medium. The following day, different concentrations of candidate compounds were added and the cells incubated at 37° C. for 48 h. Subsequently, 10 μL/well of WST-1 reagent was added and the cells reincubated for 1 hour. After the incubation time, absorbance was measured.
(§10) WST-1 is a tetrazolium salt which is cleaved to formazan dye by cellular enzymes. An expansion in the number of viable cells results in an increase in the overall activity of mitochondrial dehydrogenases in the sample. This augmentation in the enzyme activity leads to an increase in the amount of formazan dye formed, which directly correlates to the number of metabolically active cells in the culture. The formazan dye produced is quantified by a scanning multiwell spectrophotometer by measuring the absorbance of the dye solution at 450 nm wavelength (reference wavelength 690 nm).
(§11) Percent activity (% activity) in reducing the number of viable cells was calculated for each test compound as: % activity={(S^C−B)/(S^o−B)}×100 wherein S^C denotes signal measured in the presence of the compound being tested, S^o denotes signal measured in the absence of the compound being tested, and B denotes the background signal measured in blank wells containing medium only.
(§12) IC50 values were calculated using the software package Prism 3.0 (GraphPad software Inc., San Diego, Calif.), setting top value at 100 and bottom value at 0.

In data set [1] the test system is K11 HPV E7 transformed human keratinocyte line. The experiment in a line: Secondary assay: cell proliferation WST-1, K11. Particulars: Homo sapiens, Keratinocyte, 48 h, read-out: Cell Proliferation Inhibition WST-1 (IC50 unless otherwise specified) K11. Format: cell-based. Here is the method:
as §8
K11—HPV E7 transformed human keratinocyte line provided by Pidder Jansen-Duerr, Institut für Biomedizinische Alternsforschung, Innsbruck, Austria.
as §9, §10, §11, §12

Where [2] appears, read: read-out: HDAC Inhibition (IC50 unless otherwise specified) HeLa.

T1 sequence (Q92769 whole entry): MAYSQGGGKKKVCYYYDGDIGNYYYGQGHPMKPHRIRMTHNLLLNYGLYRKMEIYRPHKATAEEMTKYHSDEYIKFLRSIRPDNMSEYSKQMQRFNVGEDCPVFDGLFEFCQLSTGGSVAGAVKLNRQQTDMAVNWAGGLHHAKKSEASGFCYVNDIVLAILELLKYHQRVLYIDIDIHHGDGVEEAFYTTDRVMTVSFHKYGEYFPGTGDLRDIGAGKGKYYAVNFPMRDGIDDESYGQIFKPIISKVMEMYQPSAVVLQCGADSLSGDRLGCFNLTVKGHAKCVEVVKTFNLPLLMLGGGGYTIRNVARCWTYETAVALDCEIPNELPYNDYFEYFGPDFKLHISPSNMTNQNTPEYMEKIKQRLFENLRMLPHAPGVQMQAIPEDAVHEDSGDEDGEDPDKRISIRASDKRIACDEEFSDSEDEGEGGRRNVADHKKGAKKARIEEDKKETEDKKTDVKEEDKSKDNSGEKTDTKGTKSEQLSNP
T2 sequence (Q13547 whole entry): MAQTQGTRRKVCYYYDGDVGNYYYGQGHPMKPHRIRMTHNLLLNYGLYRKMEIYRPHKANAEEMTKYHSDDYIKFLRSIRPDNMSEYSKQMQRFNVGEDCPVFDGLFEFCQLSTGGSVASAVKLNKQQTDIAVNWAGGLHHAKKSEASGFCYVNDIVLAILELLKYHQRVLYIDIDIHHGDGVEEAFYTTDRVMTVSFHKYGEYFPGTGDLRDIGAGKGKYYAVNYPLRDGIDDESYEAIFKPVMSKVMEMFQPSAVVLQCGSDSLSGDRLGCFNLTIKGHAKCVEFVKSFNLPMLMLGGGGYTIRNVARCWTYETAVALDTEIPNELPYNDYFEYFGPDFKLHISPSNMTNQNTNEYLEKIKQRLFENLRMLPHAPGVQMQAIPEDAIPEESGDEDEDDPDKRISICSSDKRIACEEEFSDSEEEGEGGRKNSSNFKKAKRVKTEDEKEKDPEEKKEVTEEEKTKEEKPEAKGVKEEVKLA

With `CN(C)c1ccc(C(=O)NCCC(=O)NO)c2ccccc12` [PX082530, 4-Dimethylamino-napthalene-1-carboxylic acid (2-hydroxycarbamoyl-ethyl)-amide], in the data set on HDAC (HeLa cell extract) (@ 1 μM), the “HDAC Inhibition HeLa, percent” value is given as 13% @ 1 μM. The “percent HDAC inhibition at the stated concentration” value in the data set with HDAC (HeLa cell extract) (comparative tables, @ 1 μM) was found to be 13% @ 1 μM. At human HDAC2 (recombinant HDAC2, @ 5 μM), the “HDAC Inhibition HDAC2, percent” value came to 18% @ 5 μM.
`O=C(CCCCCNC(=O)c1ccccc1)NO` [PX083449, N-(5-Hydroxycarbamoyl-pentyl)-benzamide] gave a melting point of 102 to 104 °C. In addition, the pIC50 on human HDAC2 is 6.16.
Compound `CN(C)c1ccc(C(=O)NCCCCCC(=O)NO)c2ccccc12` [PX089275, 4-Dimethylamino-napthalene-1-carboxylic acid (5-hydroxycarbamoyl-pentyl)-amide] displayed a melting point of 135 to 136 °C. The pIC50 in the data set with HDAC (HeLa cell extract) (setting [2]) was 6.33. The pIC50 in the data set with HDAC (HeLa cell extract) (comparative tables, no unit in cell, read-out: HeLa IC50) is 6.33. Besides, the pIC50 on human HDAC2 is 6.32. Besides, the pIC50 at human HDAC1 is 6.76. In addition, in the data set with HeLa cells, the pIC50 is 5.64.
On to `COc1ccc(C(=O)NCCCCCC(=O)NO)cc1` [PX089276, N-(5-Hydroxycarbamoyl-pentyl)-4-methoxy-benzamide], for which the melting point was in the range of 131 to 132 °C. Also, the pIC50 with HDAC (HeLa cell extract) (setting [2]) was 6.78. Also, the pIC50 on human HDAC2 is 6.51. Also, on human HDAC1, the pIC50 is 6.60. In addition, the pIC50 in the data set on HeLa cells was 5.20.
The compound `O=C(/C=C/C=C/c1ccccc1)NC[C@H]1CC[C@H](C(=O)NO)CC1` [PX105552, 4-[((2E)(4E)-5-Phenylpenta-2,4-dienoylamino)methyl] cyclohexanecarboxylic acid hydroxyamide] registered a melting point of 210 to 212 °C. In the data set with HDAC (HeLa cell extract) (setting [2]), the pIC50 is 6.30. Moreover, the pIC50 at human HDAC2 was 6.01. In the data set on JURKAT human T-cell line, the pIC50 is 5.10. For the same compound, the pIC50 in data set [1] was 5.00. Further, in the data set on HeLa cells, the pIC50 was 5.00.
Turning to `CC(/C=C/C(=O)NCCCC(=O)NO)=C\c1ccccc1` [PX105554], the pIC50 in the data set on HDAC (HeLa cell extract) (setting [2]) is 4.66; at human HDAC2, 4.51; in the data set with JURKAT human T-cell line, 4.70; with HeLa cells it was 3.94.
On to `CN(C)c1ccc(/C=C/C=C/C(=O)NCCCC(=O)NO)cc1` [PX105669], for which the pIC50 at human HDAC2 is 4.55.
Consider `O=C(CCCCCNC(=O)c1nc2ccccc2[nH]1)NO` [PX105824, 1H-Benzimidazole-2-carboxylic acid (5-hydroxycarbamoylpentyl)amide], for which the melting point is 201 °C (dec.). Also, the pIC50 with HDAC (HeLa cell extract) (setting [2]) was 7.16. Further, the pIC50 at human HDAC1 is 7.16. For the same compound, the pIC50 with HeLa cells is 5.28.
`CC(/C=C/C(=O)NCCCCCC(=O)NO)=C\c1ccccc1` [PX105829, (2E,4E)-4-Methyl-5-phenylpenta-2,4-dienoic acid (5-hydroxycarbamoylpentyl)amide] registered a melting point of 129 to 131 °C. Further, the pIC50 with HDAC (HeLa cell extract) (setting [2]) was 7.27. Also, the pIC50 on human HDAC2 was 7.42. Besides, the pIC50 on human HDAC1 was 7.51. In addition, in the data set on HeLa cells, the pIC50 was 5.42.
For `O=C(/C=C/c1ccc2c(c1)OCO2)NCCCCCC(=O)NO` [PX105831, (E)-3-Benzo[1,3]dioxol-5-yl-N-(5-hydroxycarbamoylpentyl)acrylamide] the same measures were 191 to 193 °C, 7.48, 7.16, 7.19 and 5.05.
`O=C(/C=C/C=C/c1ccc(-c2ccccc2)cc1)NCCCCCC(=O)NO` [PX105848, (2E,4E)-5-Biphenyl-4-yl-penta-2,4-dienoic acid (5-hydroxycarbamoyl-pentyl)-amide] registered a melting point of 222 to 224 °C. For the same compound, in the data set on HDAC (HeLa cell extract) (setting [2]), the pIC50 was 7.66. In the data set on HDAC (HeLa cell extract) (comparative tables, read-out: HeLa IC50), the pIC50 is 7.66. In addition, the pIC50 on human HDAC2 was 7.25. On human HDAC1, the pIC50 was 7.60. For the same compound, the pIC50 in the data set on HeLa cells was 5.37.
The compound `O=C(CCCCCNC(=O)C(c1ccccc1)c1ccccc1)NO` [PX106489, 6-Diphenylacetylamino-hexanoic acid hydroxyamide] displayed a melting point of 55 to 56 °C. In addition, the pIC50 in the data set with HDAC (HeLa cell extract) (setting [2]) was 5.48. The pIC50 at human HDAC1 was 5.40. Further, in the data set with HeLa cells, the pIC50 was 4.22.
Consider `O=C(/C=C/c1cccc(NC(=O)/C=C/c2ccccc2)c1)NO` [PX106513, N-Hydroxy-3-[3-(3-phenylacryloylamino)-phenyl]-acrylamide], for which the melting point stood at 178 °C. For the same compound, in the data set with HDAC (HeLa cell extract) (@ 500 nM), the “HDAC Inhibition HeLa, percent” value came out at 43% @ 500 nM. For the same compound, the “percent HDAC inhibition at the stated concentration” value with HDAC (HeLa cell extract) (comparative tables, @ 1 μM) turned out to be 43% @ 1 μM. Moreover, the pIC50 on human HDAC1 was 6.36.
Compound `O=C(/C=C/C#Cc1ccccc1)NCCCCCC(=O)NO` [PX106525, (E)-5-Phenylpent-2-en-4-ynoic acid (5-hydroxycarbamoylpentyl)amide] had a melting point of 146 to 148 °C. In addition, the pIC50 in the data set on HDAC (HeLa cell extract) (setting [2]) is 7.55. Besides, the pIC50 in the data set on JURKAT human T-cell line was 5.44. For the same compound, at human HDAC1, the pIC50 is 7.43. Also, the pIC50 in data set [1] was 5.55. In the data set with HeLa cells, the pIC50 was 5.33.
